How the values were obtained:
Test in all cases: relative viability (nuclei count vs DMSO), 5 days (fraction); higher = more cells survive
[1] = compound: CC1=CC(=CC=C1)NC2=NC(=CS2)C3=CC=NC=C3 + CS(=O)(=O)CCNCc1ccc(-c2ccc3ncnc(Nc4ccc(OCc5cccc(F)c5)c(Cl)c4)c3c2)o1 [Lapatinib] (partner 2 µM)
How it was run: (§1)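 Lung cancer cell lines were seeded in 1536-well plates and dosed by pin tool the next day, with either a single drug or a fixed anchor-drug dose combined with five library-drug doses (not always all listed) spaced in √10 steps. Five days later, one step fixed the cells and stained their nuclei (final 0.05% Triton X-100, 1% formaldehyde, 1 ug/ml Hoechst), and nuclei were counted on 4× images. Relative viability is the nuclei count in treated wells divided by the count in vehicle wells, and each value is the median of duplicate plates.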

Masitinib + Palbociclib = compound: Cc1ccc(NC(=O)c2ccc(CN3CCN(C)CC3)cc2)cc1Nc1nc(-c2cccnc2)cs1 [Masitinib] + CC(=O)c1c(C)c2cnc(Nc3ccc(N4CCNCC4)cn3)nc2n(C2CCCC2)c1=O [Palbociclib] (partner 0.5 µM)
How it was run: as §1

Masitinib + Luminespib = compound: Cc1ccc(NC(=O)c2ccc(CN3CCN(C)CC3)cc2)cc1Nc1nc(-c2cccnc2)cs1 [Masitinib] + CCNC(=O)c1noc(-c2cc(C(C)C)c(O)cc2O)c1-c1ccc(CN2CCOCC2)cc1 [Luminespib] (partner 0.01 µM)
How it was run: as §1

Masitinib + Phenformin = compound: Cc1ccc(NC(=O)c2ccc(CN3CCN(C)CC3)cc2)cc1Nc1nc(-c2cccnc2)cs1 [Masitinib] + N=C(N)NC(=N)NCCc1ccccc1 [Phenformin] (partner 250 µM)
How it was run: as §1

| Cell Line | relative viability ([1]; first compound 0.08 µM) | relative viability ([1]; first compound 0.253 µM) | relative viability ([1]; first compound 0.8 µM) | relative viability ([1]; first compound 2.53 µM) | relative viability ([1]; first compound 8 µM) | relative viability (Masitinib + Palbociclib; first compound 0.01 µM) | relative viability (Masitinib + Palbociclib; first compound 0.03162 µM) | relative viability (Masitinib + Palbociclib; first compound 0.1 µM) | relative viability (Masitinib + Palbociclib; first compound 0.3162 µM) | relative viability (Masitinib + Palbociclib; first compound 1 µM) | relative viability (Masitinib + Luminespib; first compound 0.01 µM) | relative viability (Masitinib + Luminespib; first compound 0.03162 µM) | relative viability (Masitinib + Luminespib; first compound 0.1 µM) | relative viability (Masitinib + Luminespib; first compound 0.3162 µM) | relative viability (Masitinib + Luminespib; first compound 1 µM) | relative viability (Masitinib + Phenformin; first compound 0.01 µM) | relative viability (Masitinib + Phenformin; first compound 0.03162 µM) | relative viability (Masitinib + Phenformin; first compound 0.1 µM) | relative viability (Masitinib + Phenformin; first compound 0.3162 µM) | relative viability (Masitinib + Phenformin; first compound 1 µM) |
| --- | --- | --- | --- | --- | --- | --- | --- | --- | --- | --- | --- | --- | --- | --- | --- | --- | --- | --- | --- | --- |
| NCI-H2009 | 0.768 | 0.857 | 0.978 | 0.89 | 0.588 | 0.207 | 0.214 | 0.236 | 0.17 | 0.204 | 0.969 | 0.938 | 1.03 | 1 | 1.06 | 0.434 | 0.48 | 0.463 | 0.427 | 0.381 |
| NCI-H1755 | 1.01 | 1.04 | 0.843 | 0.902 | 0.707 | 0.428 | 0.474 | 0.448 | 0.491 | 0.402 |  | 0.528 | 0.414 | 0.697 | 0.331 |  | 0.51 | 0.545 | 0.597 | 0.581 |
| HOP-62 | 0.94 | 1.02 | 1.2 | 1 | 0.909 | 0.455 | 0.447 | 0.59 | 0.438 | 0.506 | 0.75 | 0.839 | 0.949 | 0.968 | 0.855 | 0.55 | 0.744 | 0.668 | 0.827 | 0.691 |
| LOU-NH91 | 0.576 | 0.613 | 0.686 | 0.705 | 0.551 | 0.564 | 0.47 | 0.57 | 0.562 | 0.527 | 0.307 | 0.32 | 0.337 | 0.272 | 0.372 | 0.656 | 0.606 | 0.683 | 0.54 | 0.605 |
| NCI-H23 | 0.971 | 1.07 | 1.01 | 1 | 0.894 | 0.439 | 0.482 | 0.598 | 0.575 | 0.527 |  | 0.253 | 0.221 | 0.22 | 0.206 | 0.846 | 0.734 | 0.881 | 0.781 | 0.748 |
| PC-3 [JPC-3] | 0.36 | 0.375 | 0.453 | 0.362 | 0.467 | 0.438 | 0.498 | 0.553 | 0.526 | 0.466 | 0.741 | 0.571 | 0.774 | 0.783 | 0.677 | 0.47 | 0.429 | 0.47 | 0.46 | 0.37 |
| NCI-H520 | 0.883 | 0.827 | 0.932 | 0.777 | 0.954 | 0.27 | 0.21 | 0.263 | 0.243 | 0.197 | 0.223 | 0.24 | 0.24 | 0.217 | 0.2 | 0.633 | 0.648 | 0.664 | 0.584 | 0.457 |
| NCI-H1666 | 0.245 | 0.24 | 0.256 | 0.283 | 0.241 | 0.665 | 0.63 | 0.696 | 0.628 | 0.617 |  | 1.05 | 1.1 | 1.03 | 1.01 |  | 0.527 | 0.637 | 0.487 | 0.56 |
| NCI-H1792 | 0.885 | 0.659 | 0.772 | 0.722 | 0.866 | 0.572 | 0.448 | 0.701 | 0.611 | 0.611 | 0.341 | 0.206 | 0.41 | 0.397 | 0.402 | 0.216 | 0.258 | 0.233 | 0.363 | 0.191 |
| NCI-H727 | 0.489 | 0.777 | 0.674 | 0.706 | 0.668 | 0.599 | 0.692 | 0.668 | 0.621 | 0.618 | 0.494 | 0.324 | 0.831 | 0.341 | 0.416 | 0.641 | 0.636 | 0.5 | 0.616 | 0.44 |
| HARA | 0.483 | 0.641 | 0.509 | 0.474 | 0.527 | 0.271 |  | 0.244 | 0.254 | 0.254 |  | 0.609 | 0.44 | 0.682 | 0.731 |  | 0.417 | 0.399 | 0.398 | 0.424 |
| NCI-H647 | 0.958 | 0.977 | 0.849 | 0.932 | 0.917 | 0.419 | 0.369 | 0.49 | 0.325 | 0.375 | 0.223 | 0.141 | 0.13 | 0.195 | 0.259 | 0.549 | 0.521 | 0.526 | 0.57 | 0.584 |
| NCI-H1650 | 0.801 | 0.735 | 0.753 | 0.445 | 0.176 | 0.242 | 0.321 | 0.254 | 0.298 | 0.376 | 0.195 | 0.227 | 0.221 | 0.191 | 0.206 | 0.419 | 0.334 | 0.447 | 0.371 | 0.362 |
| NCI-H2347 | 0.731 | 0.767 | 0.635 | 0.95 | 0.757 | 0.381 | 0.389 | 0.408 | 0.422 | 0.444 | 0.758 | 0.299 | 0.41 | 0.556 | 0.326 | 0.391 | 0.402 | 0.333 | 0.374 | 0.327 |
| LCLC-97TM1 |  |  | 1.04 | 1.03 | 1.27 | 0.192 | 0.15 | 0.25 | 0.285 | 0.208 |  | 0.777 | 0.857 | 0.946 | 0.857 |  | 0.458 | 0.407 | 0.492 | 0.446 |
| EPLC-272H | 0.831 |  | 0.867 |  | 0.908 | 0.299 | 0.331 | 0.327 | 0.295 | 0.329 | 0.27 | 0.237 | 0.262 | 0.195 | 0.232 | 0.317 | 0.212 | 0.285 | 0.305 | 0.257 |
| NCI-H1975 | 0.723 | 0.821 | 0.657 | 0.651 | 0.544 | 0.424 | 0.517 | 0.468 | 0.399 | 0.587 | 0.246 | 0.287 | 0.22 | 0.156 | 0.124 | 0.405 | 0.402 | 0.422 |  | 0.408 |
